{
  "source": "patent US20040171688A1",
  "about": "“Carboxylic acids and derivatives thereof and pharmaceutical compositions containing them” (priority 1997, published 2004)",
  "key": {"HNF-4α [1]": {"biological_target": "T1, HNF-4α (Rattus norvegicus, UniProt P22449)", "T1 sequence (P22449 1-464 isoform P22449-2)": "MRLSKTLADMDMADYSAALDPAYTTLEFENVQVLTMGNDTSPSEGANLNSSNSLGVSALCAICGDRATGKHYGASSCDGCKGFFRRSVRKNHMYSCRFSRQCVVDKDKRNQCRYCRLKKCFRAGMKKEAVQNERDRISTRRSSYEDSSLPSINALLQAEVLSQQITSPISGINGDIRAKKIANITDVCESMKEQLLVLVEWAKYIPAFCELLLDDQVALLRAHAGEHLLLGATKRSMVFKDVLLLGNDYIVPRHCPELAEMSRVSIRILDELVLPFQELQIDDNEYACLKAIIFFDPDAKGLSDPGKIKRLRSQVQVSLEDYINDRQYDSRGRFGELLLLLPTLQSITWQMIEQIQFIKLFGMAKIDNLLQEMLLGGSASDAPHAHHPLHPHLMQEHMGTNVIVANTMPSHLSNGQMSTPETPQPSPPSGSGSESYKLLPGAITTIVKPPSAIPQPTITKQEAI", "experiment": "Gel mobility shift assay: His-HNF-4α binding to C3P apo CIII promoter oligonucleotide", "type": "biochemical", "set-up": "The full length HNF-4α1 cDNA cloned into 6His-pET11d vector was expressed in E.coli BL21 (DE3)plysS; 6His; made in house; host or cells: E. coli BL21 (DE3)plysS", "settings": "for effect on His-HNF-4α binding to C3P oligonucleotide: gel mobility shift, 10 μM acyl-CoA (FIG. 2)", "protocol": "a. His-HNF-4I (14 ng) binding to C3P in the absence (lane 1) or presence of 10 μM each of myristoyl(14:0)-CoA (lane 2) or palmitoyl(16:0)-CoA (lane 3).\nb. His-HNF-4I (20 ng) binding to C3P in the absence (lane 1) or presence of 10 μM each of stearoyl(18:0)-CoA (lane 2) or linolenoyl(18:3, w-3)-CoA (lane 3).\nc. Activation of His-HNF-4I (14 ng) binding to C3P by increasing concentrations of myristoyl(14:0)-CoA. The gel section containing radiolabeled C3P bound to His-HNF-4I dimer is shown.\nHis-HNF-4α and acyl-CoA (as indicated) were preincubated for 30 min at 22° C. in 11 mM Hepes (pH 7.9) containing 50 mM KCl, 1 mM dithiothreitol. 2.5 mM MgCl2, 10% glycerol, 1 μg of poly(dI-dC) in a final volume of 20 μl. ^32P-labeled oligonucleotide (0.1 ng) consisting of the human C3P apo CIII promoter sequence,(−87/−66)^6 was then added, and incubation was continued for an additional 15 min. Protein-DNA complexes were resolved by 5% nondenaturing polyacrylamide gel in 0.6×TBE and quantitated by PhosphorImager analysis.\nHNF-4α activity as a function of binding of long chain acyl-CoAs was evaluated by studying the binding of HNF-4α to its cognate C3P element of the apo CIII promoter sequence (−87/−66)^6 in the presence or absence of added acyl-CoAs of variable chain length, degree of saturation, and degree of substitution. Binding was verified by using a gel mobility shift assay. […] Activation was concentration dependent and maximal in the presence of myristoyl(14:0)-CoA added within a concentration range required for its binding to HNF-4α."}, "HNF-4α [2]": {"biological_target": "T2, HNF-4α (Rattus norvegicus, UniProt P22449)", "T2 construct": "GST-HNF-4α(LBD) fusion protein consisting of amino acids 96-455 of wild type HNF-4α fused to GST; fused on or other part: Glutathione-S-transferase (GST) at the N-terminus of the LBD construct; 6-histidine tag on the full-length construct", "T2 sequence (P22449 105-464 isoform P22449-2 limits assumed)": "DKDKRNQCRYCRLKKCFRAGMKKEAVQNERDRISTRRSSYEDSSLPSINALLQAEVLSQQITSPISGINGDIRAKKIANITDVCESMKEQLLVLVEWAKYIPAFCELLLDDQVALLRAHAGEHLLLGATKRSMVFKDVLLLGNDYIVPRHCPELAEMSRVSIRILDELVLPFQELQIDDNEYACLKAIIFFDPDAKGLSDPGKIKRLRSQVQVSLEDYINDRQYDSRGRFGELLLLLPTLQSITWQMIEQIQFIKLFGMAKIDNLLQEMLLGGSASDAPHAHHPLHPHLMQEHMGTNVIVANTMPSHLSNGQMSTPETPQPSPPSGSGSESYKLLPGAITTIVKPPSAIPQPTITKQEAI", "experiment": "Ligand binding assay with [3H]palmitoyl(16:0)-CoA on recombinant GST-HNF-4α(LBD) or His-HNF-4α", "settings": "competition with 8 nM [3H]palmitoyl(16:0)-CoA; GST-HNF-4α(LBD) or His-HNF-4α; read-out: EC50 (50% specific competition)", "protocol": "a. […] The respective recombinant proteins are incubated to equilibrium with [^3H]palmitoyl(16:0)-CoA (0.05 μCi) and with increasing nonlabeled palmitoyl(16:0)-CoA as indicated.\nb. […] The respective recombinant proteins are incubated with 8 nM of [^3H]palmitoyl(16:0)-CoA (60 Ci/mmol) and with increasing nonlabeled myristoyl(14:0)-CoA as indicated. Percent bound refers to radiolabeled [^3H]palmitoyl(16:0)-CoA in the bound fraction. […] Percent bound refers to radiolabeled [^3H]palmitoyl(16:0)-CoA in the bound fraction.\nRat HNF-4α1 cDNA(pLEN4S)^1 was subcloned into the glutathione-S-transferase (GST) encoding pGEX-2T plasmid (Pharmacia) and the resultant plasmid was cleaved with smaI and AccI and religated to yield the GST-HNF-4α(LBD) fusion plasmid. […] The full length HNF-4α1 cDNA cloned into 6His-pET11d vector was expressed in E.coli BL21 (DE3)plysS.\nRecombinant GST-HNF-4α(LBD) (100 pmol) or His-HNF-4α (100 pmol) were incubated for 60 min at 22° C. with [^3H]palmitoyl(16:0)-CoA (American RadiolabeledChemicals) in 100 μl of 10 mM phosphate buffer (pH 7.4). Competitor ligands or solvent carrier were added as indicated. Free and HNF-4α bound ^3[H]palmitoyl(16:0)-CoA were separated by […] and bound ligand was quantified by liquid scintillation counting. Nonspecific binding of [^3H]palmitoyl(16:0)-CoA was determined by its binding to the GST moiety or to carbonic anhydrase as nonrelevant protein.\nBinding was exemplified with either the ligand binding domain of HNF-4α fused to glutathione-s-transferase (GST-HNF-4α(LBD)) or the full length HNF-4α protein tagged by 6 histidines (His-HNF-4α)."}},
  "note": "Entries after “also recorded” stand apart in the source; their conditions may differ.",
  "data": [
    {"smiles": "CCCCCCCCCCCCCCCCCC(=O)SCCNC(=O)CCNC(=O)[C@H](O)C(C)(C)COP(=O)(O)OP(=O)(O)OC[C@H]1O[C@@H](n2cnc3c(N)ncnc32)[C@H](O)[C@@H]1OP(=O)(O)O", "note": "[Stearoyl(18:0)-CoA]", "values": [
      {"measurement": "effect on His-HNF-4α binding to C3P oligonucleotide", "setting": "HNF-4α [1]", "value": "potent inhibition"},
      {"measurement": "direct effect on HNF-4α (summary)", "setting": "HNF-4α [1]; summary statement of Example 4", "value": "antagonistic effect"},
      {"measurement": "EC50", "setting": "HNF-4α [2]", "value": 2700, "unit": "nM"}
    ]},
    {"smiles": "CCCCCCCCCCCCCC(=O)SCCNC(=O)CCNC(=O)[C@H](O)C(C)(C)COP(=O)(O)OP(=O)(O)OC[C@H]1O[C@@H](n2cnc3c(N)ncnc32)[C@H](O)[C@@H]1OP(=O)(O)O", "note": "[myristoyl(14:0)-CoA, reference compound]", "values": [
      {"measurement": "effect on His-HNF-4α binding to C3P oligonucleotide", "setting": "HNF-4α [1]", "value": "Activation; also recorded: maximal"},
      {"measurement": "EC50", "setting": "HNF-4α [2]", "value": 1400, "unit": "nM"}
    ]}
  ]
}
